Experimental data from US20260327211A1, “MODULATORS OF A POTASSIUM CHANNEL AND OF TRPV1 CHANNEL AND USES THEREOF” (Bsense Bio Therapeutics Ltd., priority 2023, published 2026).
Like-named read-outs stand apart in the source and are kept apart here.

Experiments:
Rat pharmacokinetics = format: in vivo; details: for clearance: read-out: PK: Cl; for bioavailability: po, 10 mg/kg; for half-life: read-out: PK: T1/2 (converted)
Procedure: The pharmacokinetic (PK) properties of test compound following single intravenous (IV) bolus and oral gavage (PO) administration in male Sprague-Dawley (SD) rats were determined in this study.
Test compound administration: Six male Sprague Dawley (SD) rats were divided into two designated groups, Group 1 and Group 2, each composed of three rat subjects. Group 1 animals were subjected to a single intravenous bolus administration of the test compound at a dosage of 1 mg/kg. Group 2 animals were administered with the test compound orally in a single dose, at a concentration of 10 mg/kg. Throughout the study, the animals had unhindered access to food. The test compound was administered at a concentration of 0.5 mg/mL and dose volume of 2 mL/kg for Group 1, and at a concentration of 1 mg/mL and dose volume of 10 mL/kg, for Group 2.
Sample extraction and analysis: Plasma samples were systematically collected at varying time points of 0.083 (only for Group 1), 0.25, 0.5, 1, 2, 4-, 6-, 8-, and 24-hours post-dose. LC-MS/MS was used to determine the test compound's concentration within the collected plasma samples. Data reflecting plasma concentration in correlation to time were graphically represented and subjected to a non-compartmental analysis using the Phoenix WinNonlin 6.3 software program. The resulting pharmacokinetic parameters, including Clearance (Cl), Volume of distribution at steady state (Vdss) and initial concentration (C0) for intravenous administration; peak concentration (Cmax), time of peak concentration (Tmax), and bioavailability (% F) for extravascular administration; and half-life (T1/2), Area Under Curve from time zero to time t (AUC(0-t)), Area Under Curve from time zero to infinity (AUC(0-inf)), Mean Residence Time from time zero to time t (MRT(0-t)), Mean Residence Time from time zero to infinity (MRT(0-inf)) for all routes, were systematically calculated.

[1] = Plasma protein binding, rat; format: in vitro ADME; details: read-out: PPB fu (rat)
Procedure: Incubation: Test compounds or the positive control warfarin were introduced into 10% plasma samples (Sourced from WuXi DMPK labs or from commercial vendors) to a concentration of 2 μM. A portion of 150 μL of the compound-containing plasma sample was added to one chamber of a 96-well equilibrium HTD dialysis plate. An equal volume of dialysis buffer was added to the corresponding chamber. A plasma sample was also taken before the incubation and designated as the T0 sample, serving for recovery calculation. The plate was incubated in a humidified 5% CO2 incubator at 37° C. for 4 hours. Each incubation was set up in triplicate.
Sample extraction and preparation: Following the incubation period, samples of 50 μL were drawn from both the plasma side and the buffer side and each was mixed with an equal volume of blank plasma. All matrix-matched samples were quenched using a stop solution containing an internal standard (IS).
Sample Analysis: The samples were subsequently analyzed by LC-MS/MS. The concentrations of the test compound in plasma and buffer samples were quantified based on the peak area ratio of analyte to the internal standard, with no requirement for a standard curve.

HepG2 toxicity, ATPlite = format: cell-based, human; details: human, hepg2 cells; 48 hours; read-out: HepG2 Toxicity LD50
Procedure: Cell culture: HepG2 cell-line cells were cultured in EMEM (ATCC 30-2033) medium supplemented with 10% fetal bovine serum (Biological Industries) in a humidified 5% CO2 incubator at 37° C.
ATPlite™ 1step Kit: ATPlite™ 1step kit (PerkinElmer) was used in a 384-wells format to assess potential liver toxicity using HepG2 cells. This is an ATP detection system based on firefly luciferase luminescence for the quantitative evaluation of proliferation and cytotoxicity of cells. ATP is a marker for cell viability because it is present in all metabolically active cells and its concentration declines very rapidly when the cells undergo necrosis or apoptosis.
According to an optimization process done to achieve uniform and consistent screening condition of molecules, the following protocol was established: Cells were seeded in 384-well, black-walled, clear-bottomed, at a density of 4000 cells per well […] and incubated overnight in their normal growth medium. On day two (48 hours before viability measurement), the tested compounds and the positive control were applied to the wells according to the plate design. […] 48 hours later, reconstituted lyophilized substrate solution was added to each well and the sealed 384-well microplate was mixed for 2 minutes at 1100 rpm in an orbital microplate and plates were incubated for 10 minutes in the dark at room temperature. Right after, luminescence was measured in the Tecan plate reader. To estimate the LD50 and LD25 values the data was fitted to sigmoidal regression using Prism-GraphPad. […]

[2] = Bidirectional permeability in Caco-2 cells; format: in vitro ADME, human
Procedure: Cell culture: Caco-2 cells (ATCC) were seeded onto polycarbonate (PC) membranes in 96-well insert plates. The cells were cultured in media for 21-28 days prior to performing the transport assays.
Validation of monolayer integrity: Once the Caco-2 cells formed a confluent monolayer, their integrity was evaluated using a Lucifer yellow rejection assay. The monolayer integrity was further evaluated by measuring, in duplicate wells, the unidirectional (A→B) permeability of nadolol (a low permeability marker) and metoprolol (a high permeability marker), as well as bidirectional permeability of digoxin (a P-glycoprotein substrate marker).
Assay: The compounds were assayed under bidirectional transport conditions (A→B and B→A) at a concentration of 2.00 μM (with DMSO≤1.0%), using a transport buffer composed of HBSS containing 10.0 mM HEPES, pH 7.40±0.05. The incubation was carried out at 37° C., with 5.0% CO2 and relatively saturated humidity for 2 hours.
The dosing solution was spiked and mixed with the transport buffer and a Stop Solution (containing an internal standard (IS)) to create a T0 sample.
Sample analysis: Following the incubation, all of the samples were analyzed using LC-MS/MS. The concentrations of the test compounds were expressed as peak area ratios of the analytes versus the IS.

[3] = Metabolite identification (Met-ID), human hepatocytes; format: in vitro ADME
Procedure: Cell culture and incubation: Cryopreserved hepatocyte cells, from human and rat sources, were purchased from commercial sources or in-house production, and were cultured in Williams' Medium E supplemented with glutamine and HEPES, in a humidified 5% CO2 incubator at 37° C., to a cell density of […]. Then, solutions of test compounds at a concentration of 10 μM, or 7-Ethoxycoumarin, as a positive control, at a concentration of 30 μM, in Eagle's Minimum Essential Medium, Catalog No. 30-2003 (ATCC) supplemented with 20% fetal bovine serum, were introduced and the mixture was incubated for 120 minutes, or other specified time points.
The samples were analyzed for metabolites using an LC-MS method developed on […] and PDA systems. Comparative analyses of mass spectra and ion fragmentation between the parent compound and its metabolites were carried out, and metabolic profiling was determined using the mass spectrometric and/or PDA (UV) response. Hypothetical structures of metabolites and their metabolic pathways were proposed.

[4] = rat, plasma, read-out: PK: Oral BA

| Compound | clearance (Rat pharmacokinetics; rat, plasma, iv, 1 mg/kg) [L/h/kg] | bioavailability (Rat pharmacokinetics; [4]) [%] | fraction unbound at 4 h, 2 µM [1] | CC50 at 48 h (HepG2 toxicity, ATPlite) [µM] | half-life (Rat pharmacokinetics; rat, plasma) [h] | Caco-2 AB [2] | Human Hepatocytes MetID (glutathione conjugation) ([3]; human hepatocytes) | other results |
| --- | --- | --- | --- | --- | --- | --- | --- | --- |
| Cc1cn(-c2ccc(F)c(CC(=O)NCC(C)(C)O)c2)c2c(Cl)cc(Cl)cc12 [Compound 421] | 2.31 | 10.6 | 0.0004 | > 1 | – | – | – | – |
| O=C(Cc1cc(-n2cc(Cl)c3cc(Cl)cc(Cl)c32)ccc1F)NCCO [Compound 627] | 3.95 | 25.3 | 0.0004 | 3.37 | 1.48 | – | – | – |
| O=C(Cc1cncc(-n2cc(Cl)c3cc(Cl)cc(Cl)c32)c1)N[C@@H]1COC[C@H]1O [Compound 661] | 2.14 | 28.8 | 0.0029 | > 16.6 | 2.49 | 1.78 | – | Metabolites M1-M7 (glutathione conjugation), share of identified metabolites [3]: 2.09%; Multiple of free plasma exposure over IC50 (rat DRG) (Rat pharmacokinetics; 10 mg/kg oral): 30 fold; Free plasma exposure, fu plasma C8 hour (Rat pharmacokinetics; 10 mg/kg oral, 8 hours): 0.09 nM; Dose from which efficacious levels are expected (Rat pharmacokinetics; oral, extrapolated from 10 mg/kg): 2 mg/kg |
| O=C(Cc1nccc(-n2cc(Cl)c3cc(Cl)cc(Cl)c32)n1)NC1COCC1O (centres unmarked) [Compound 760] | 3.61 | – | – | – | 2.68 | 7.6 | did not indicate the presence of glutathione conjugation and None | Vd (Rat pharmacokinetics; rat, plasma, iv, 1 mg/kg, read-out: Volume of distribution at steady state (Vdss)): 2.37 L/kg; bioavailability (Rat pharmacokinetics; rat, plasma, read-out: Oral bioavailability): 48.6% |
| O=C(Cc1ccnc(-n2cc(Cl)c3cc(Cl)cc(Cl)c32)n1)N[C@@H]1COC[C@H]1O [Compound 820] | – | – | – | – | – | – | did not indicate the presence of glutathione conjugation and None | Caco-2 Efflux ratio ([2]; 2.00 μM, 120 min): 2.49; efflux ratio at 2 h, 2 µM ([2]; human, Caco-2, pH 7.4, 2.00 μM): < 3 |
| O=C(Cc1cc(-n2cc(C(F)(F)F)c3cc(Cl)cc(Cl)c32)ncn1)NCCO [Compound 843] | 0.396 | 73.4 | – | – | – | – | did not indicate the presence of glutathione conjugation | Human Hepatocytes MetID ([3]; human hepatocytes): 0.2% |
